Measurements: ChEMBL document CHEMBL3244199, “6beta-[N,N-Bis(2-chloroethyl)amino]-17-(cyclopropylmethyl)-4,5alpha-epoxy-3,14-dihydroxymorphinan(chlornaltrexamine) a potent opioid receptor alkylating agent with ultralong narcotic antagonist actitivty” (J Med Chem, 1978)
Active and inactive are the calls of the source. No cut-off for these calls is given here.

What was measured:
[1] = target: Opioid receptors; mu/kappa/delta (Homo sapiens) (UniProt P41145+P41143+P35372); settings: Brain, 1 uM
Description: Displacement of [3H]naloxone from opioid receptor (unknown origin) in brain homogenate at 1 uM to 10 nM

[2] = test system: Mus musculus; test: Residual inhibition of morphine-induced analgesia in mouse at 2.4 nmol, icv measured after 2 hrs by tail-flick assay; format: functional, organism-based
[3] = test system: Mus musculus; test: Toxicity in mouse at 4.8 nmol, icv measured within 1.5 hrs post-drug administration; format: organism-based; settings: in vivo, icv_or_intrathecal
[4] = Toxicity in mouse assessed as animal death at 2.4 nmol, icv; format: organism-based; settings: in vivo, icv or intrathecal, read-out: Activity

Chain of Opioid receptors; mu/kappa/delta (Homo sapiens) (P35372 whole entry, looked up): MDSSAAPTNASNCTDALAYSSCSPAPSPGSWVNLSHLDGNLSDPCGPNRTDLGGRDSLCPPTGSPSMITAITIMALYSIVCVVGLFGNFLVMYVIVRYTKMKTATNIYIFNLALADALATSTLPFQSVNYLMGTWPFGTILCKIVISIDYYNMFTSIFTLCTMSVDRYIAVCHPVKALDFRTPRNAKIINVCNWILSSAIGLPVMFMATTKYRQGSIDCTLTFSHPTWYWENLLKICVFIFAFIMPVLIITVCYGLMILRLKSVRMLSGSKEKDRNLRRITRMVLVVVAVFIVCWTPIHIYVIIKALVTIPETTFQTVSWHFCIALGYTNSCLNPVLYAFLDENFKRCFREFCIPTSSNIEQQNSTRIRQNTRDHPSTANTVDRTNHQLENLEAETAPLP
Chain of Opioid receptors; mu/kappa/delta (Homo sapiens) (P41143 whole entry, looked up): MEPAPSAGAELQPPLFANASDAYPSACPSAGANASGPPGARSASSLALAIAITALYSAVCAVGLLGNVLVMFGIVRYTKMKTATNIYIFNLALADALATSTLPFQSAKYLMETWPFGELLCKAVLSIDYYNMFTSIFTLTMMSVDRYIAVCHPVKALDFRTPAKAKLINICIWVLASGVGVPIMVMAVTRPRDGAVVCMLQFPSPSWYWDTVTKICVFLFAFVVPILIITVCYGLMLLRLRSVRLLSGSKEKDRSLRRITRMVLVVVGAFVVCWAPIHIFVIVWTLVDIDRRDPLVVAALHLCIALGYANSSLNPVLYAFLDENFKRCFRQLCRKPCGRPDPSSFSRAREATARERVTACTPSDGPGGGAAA
Chain of Opioid receptors; mu/kappa/delta (Homo sapiens) (P41145 whole entry, looked up): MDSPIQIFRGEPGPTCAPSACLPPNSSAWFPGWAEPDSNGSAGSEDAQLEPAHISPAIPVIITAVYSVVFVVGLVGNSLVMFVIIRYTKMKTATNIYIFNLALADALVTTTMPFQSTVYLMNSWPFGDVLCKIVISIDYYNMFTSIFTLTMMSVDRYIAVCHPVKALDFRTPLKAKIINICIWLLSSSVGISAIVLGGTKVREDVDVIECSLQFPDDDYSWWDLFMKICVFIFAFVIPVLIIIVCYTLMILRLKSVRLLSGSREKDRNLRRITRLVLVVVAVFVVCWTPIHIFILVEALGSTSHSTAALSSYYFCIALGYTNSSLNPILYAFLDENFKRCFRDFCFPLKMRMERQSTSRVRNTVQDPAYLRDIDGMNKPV

With `CN1CC[C@]23CCCC[C@H]2[C@H]1Cc1ccc(O)cc13` the inhibition [1] was “Active”.

For `O=C1CC[C@@]2(O)[C@H]3Cc4ccc(O)c5c4[C@@]2(CCN3CC2CC2)[C@H]1O5`, the inhibition [2] was “inactive”.

With `Cl.Oc1ccc2c3c1O[C@H]1[C@H](N(CCCl)CCCl)CC[C@@]4(O)[C@@H](C2)N(CC2CC2)CC[C@]314` the Activity [3] was 12% and the mortality [4] was 2%.
